Marks after values point to notes of the source that are not given here. One block for each compound: values may come before it.
Experiments:
[1] = target: T1, Canton G6PD (Homo sapiens, UniProt P11413, R459L); assay: Canton G6PD enzyme activity, diaphorase-coupled assay; type: biochemical; conditions: Canton G6PD
T1 construct: His (pET-28a) (N, cleaved yes); made in house; host or cells: E. coli C43 (DE3)
Experimental: (§1) Enzyme activity was measured by monitoring NADPH production, which was coupled with diaphorase converting resazurin to fluorescent resorufin (excitation at 565 nm and emission at 590 nm); fluorescent signal was thus proportional to G6PD activity. Assays were performed at 25° C. and run for 5 minutes in buffer containing 50 mM Tris (pH 7.4), 0.5 mM EDTA, 3.3 mM MgCl2, 1 U/ml diaphorase, 0.1 mM resazurin. 10 ng of recombinant enzymes or 10 μg of cell lysates was used for the assay with 10 μM NADP^+ (Sigma) as cofactor and 100 μM G6P (Sigma) as substrate. Steady-state kinetic parameters were obtained by varying concentrations of NADP^+ (0-10 μM) with a constant concentration of G6P (100 μM) and similarly for G6P (0-100 μM) with a constant concentration of NADP^+ (10 μM) with 10 ng of recombinant enzymes. Data analysis was performed using GraphPad Prism software v.6 (GraphPad Software, La Jolla, Calif. USA). Kinetic parameters were obtained by fitting the data to the Michaelis-Menten equation.
The diaphorase-coupled enzyme assay as described above was used to screen a library of compounds for small molecule activators. The compounds were added to Canton G6PD enzyme reaction mixture at a final concentration of 16.67 μM using Caliper Life Sciences Staccato system with a Twister II robot and a Sciclone ALH3000 (Caliper Life Sciences, Alameda, Calif. USA) integrated with a V&P Scientific pin tool, which was followed by incubation for 3 hours. Addition of G6P then initiated the reaction, which was run for 2.5 minutes. The fluorescent signals were recorded 4 times during the run using Molecular Devices AnalystGT (Molecular Devices, Sunnyvale, Calif. USA). Any compounds showing 30% activation of the enzyme were rescreened in a dose-dependent manner (0-30 μM, duplicate) to identify potential hits.
(§2) Based on preliminary results with compound AG1, a variety of compounds of interest were prepared and assessed in G6PD enzyme activation assays, according to the methods described herein.

[2] = target: T2, Canton W509A G6PD (Homo sapiens, UniProt P11413, R459L/W509A); assay: Canton W509A G6PD enzyme activation; type: biochemical
T2 construct: His (pET-28a) (N, cleaved yes); made in house; host or cells: E. coli C43 (DE3)
T2 sequence (P11413 whole entry R459L/W509A): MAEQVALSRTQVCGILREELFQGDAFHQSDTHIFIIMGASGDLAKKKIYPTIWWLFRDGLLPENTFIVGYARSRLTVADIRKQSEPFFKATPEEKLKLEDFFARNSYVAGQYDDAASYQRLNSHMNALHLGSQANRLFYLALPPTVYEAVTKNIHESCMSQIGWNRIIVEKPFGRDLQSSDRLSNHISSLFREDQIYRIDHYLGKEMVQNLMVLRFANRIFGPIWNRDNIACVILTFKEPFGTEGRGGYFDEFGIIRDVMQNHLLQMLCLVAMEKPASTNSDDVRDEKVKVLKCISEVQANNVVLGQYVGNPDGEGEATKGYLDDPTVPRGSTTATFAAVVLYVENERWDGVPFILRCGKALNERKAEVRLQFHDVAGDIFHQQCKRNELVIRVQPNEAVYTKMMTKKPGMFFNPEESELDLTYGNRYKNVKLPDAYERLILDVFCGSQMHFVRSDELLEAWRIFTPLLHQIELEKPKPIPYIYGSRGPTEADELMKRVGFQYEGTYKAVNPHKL
Experimental: as §1, §2

[3] = target: T3, wt G6PD obtained from a blood sample (Homo sapiens, UniProt P11413); assay: G6PD enzyme activation on wt G6PD from a blood sample; type: biochemical; conditions: 100 uM compound
T3 construct: tissue Stanford Blood Center; host or cells: blood / erythrocytes
T3 sequence (P11413 2-515 limits assumed): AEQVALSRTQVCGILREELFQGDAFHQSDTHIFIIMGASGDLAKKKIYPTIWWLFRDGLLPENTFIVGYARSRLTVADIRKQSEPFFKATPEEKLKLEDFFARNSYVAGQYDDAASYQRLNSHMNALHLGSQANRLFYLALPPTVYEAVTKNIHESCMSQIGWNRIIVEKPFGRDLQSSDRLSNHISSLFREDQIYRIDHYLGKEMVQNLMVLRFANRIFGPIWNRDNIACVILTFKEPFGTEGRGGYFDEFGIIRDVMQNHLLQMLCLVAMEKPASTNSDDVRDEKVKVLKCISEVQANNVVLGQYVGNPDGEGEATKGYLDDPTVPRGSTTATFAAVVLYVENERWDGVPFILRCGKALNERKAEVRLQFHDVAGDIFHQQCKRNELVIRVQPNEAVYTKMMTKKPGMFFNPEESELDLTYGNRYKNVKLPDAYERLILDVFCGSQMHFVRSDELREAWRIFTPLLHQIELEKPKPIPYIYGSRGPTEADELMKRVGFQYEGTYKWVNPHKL
Experimental: Enzyme activity was measured by monitoring NADPH production, which was coupled with diaphorase converting resazurin to fluorescent resorufin (excitation at 565 nm and emission at 590 nm); fluorescent signal was thus proportional to G6PD activity. Assays were performed at 25° C. and run for 5 minutes in buffer containing 50 mM Tris (pH 7.4), 0.5 mM EDTA, 3.3 mM MgCl2, 1 U/ml diaphorase, 0.1 mM resazurin. 10 ng of recombinant enzymes or 10 μg of cell lysates was used for the assay with 10 μM NADP^+ (Sigma) as cofactor and 100 μM G6P (Sigma) as substrate. […]
De-identified blood samples were obtained from the Stanford Blood Center. […] G6PD activity was measured (Beutler E. Red cell metabolism: A manual of biochemical methods (3rd edition). Grune & Stratton (1984)). […] Hemoglobin release in the supernatant was monitored by measuring absorbance at 540 nm. […] After wash, the samples were lysed with 0.1% Triton X-100 (final concentration), and the florescence was analyzed with excitation/emission at 485/525 nm. GSH measurement was determined using a Cayman glutathione assay kit (Cayman Chemicals, 703002). […] The absorbance was read at 412 nm. For storage assay, a 5% erythrocyte suspension was stored at 4° C. with and without 1 μM AG1, and hemolysis and G6PD activity were monitored every week for 28 days to examine whether AG1 improves preservation of erythrocytes over time. […]

[4] = system: zebrafish embryos; assay: Pericardial edema in zebrafish embryos; type: in vivo; conditions: 50 μg/ml at 24 hpf
Experimental: Embryos were dechorinated with pronase at 24 hours post fertilization (hpf) and treated with 50 μg/ml of chloroquine and/or AG1 by directly adding the compounds to the well. For ROS measurements, embryos were incubated with compounds for 2 hours, and then the ROS detecting reagent (CM-H2DCFDA) was added at a final concentration of 500 ng/ml to the well for a total treatment time of 5 hours. One embryo was placed to each well of a black, opaque 96-well plate. The florescence was analyzed with excitation/emission at 485/525 nm. After ROS assays, embryos at about 32 hpf were pooled and lysed in buffer containing 50 mM Tris (pH 7.4), 150 mM NaCl, 1 mM EDTA, 0.1% NP-40, and protease inhibitor cocktail, which was followed by three cycles of freeze and thawing in liquid nitrogen. The lysate was centrifuged at 14,000 rpm at 4° C. for 15 minutes. Total protein concentration in the supernatants (total lysate) was determined by Bradford method. 50 μg of total lysate was loaded onto 10% SDS-PAGE gels and the protein level was examined by Western blot using anti-G6PD antibody (Abcam (G6PD: AB87230)). 10 μg of total lysate was used for enzymatic assay. 50 μg of the lysate was used to measure NADPH levels using a NADPH quantification kit (Biovision), according to the manufacturer's instructions.
Live embryos were anesthetized and mounted in 3% methylcellulose. Embryos were imaged with a Leica M205FA microscope equipped with a 1.0× Plan Apochromatic objective and a SPOT Flex camera or a Leica DM4500B compound microscope equipped with a QImaging Retiga-SRV camera. For hemoglobin staining, fixed embryos were stained with o-dianisidine as previously reported (10), cleared, mounted in 100% glycerol, and imaged with a Leica M205FA microscope equipped with a 1.0× Plan Apochromatic objective and a SPOT Flex camera. All images were captured using SPOT or MetaMorph imaging software (Diagnostic Imaging Inc.) and processed in Photoshop (Adobe). Adjustments were limited to brightness levels and cropping. Analysis was carried out by an observer blinded to the experimental conditions.

[5] = system: point mutants of the Canton variant of G6PD; assay: Effect of point mutations of Canton G6PD on compound activity; type: biochemical, human; conditions: mutations on the side opposite the putative binding site
Experimental: The gene encoding wild-type (WT) G6PD was inserted into the pET-28a vector, using NdeI and SalI restriction sites by polymerase chain reaction (PCR). Site-directed mutagenesis to generate G6PD variants was performed using appropriate primer sets according to the manufacturer's guidelines (Agilent). All constructs were verified by sequencing.
as §1, with “equation. […]” for “equation.”

[6] = system: G6PD; assay: G6PD activation activity, compounds with various linkers; type: biochemical; conditions: 100 uM compound
Experimental: Enzyme activity was measured by monitoring NADPH production, which was coupled with diaphorase converting resazurin to fluorescent resorufin (excitation at 565 nm and emission at 590 nm); fluorescent signal was thus proportional to G6PD activity. Assays were performed at 25° C. and run for 5 minutes in buffer containing 50 mM Tris (pH 7.4), 0.5 mM EDTA, 3.3 mM MgCl2, 1 U/ml diaphorase, 0.1 mM resazurin. 10 ng of recombinant enzymes or 10 μg of cell lysates was used for the assay with 10 μM NADP^+ (Sigma) as cofactor and 100 μM G6P (Sigma) as substrate. […] Data analysis was performed using GraphPad Prism software v.6 (GraphPad Software, La Jolla, Calif. USA).

T1 sequence (P11413 whole entry R459L): as the sequence (P11413 whole entry R459L/W509A) above, with A509W counted along it

AC50 [1]: 74 µM | Amax [1]: 2.0 | AC50 [2]: 58 µM | Amax [2]: 3.8 | enzyme activity at 100 µM [3]: 154%
Compound: c1cc(CNCCc2ccc3c(c2)OCO3)c2c(CNCCc3ccc4c(c3)OCO4)cccc2c1 [AR4-078]

Compound: CCN(CC)CCCC(C)Nc1ccnc2cc(Cl)ccc12 (stereo not drawn) [chloroquine, reference compound]
effect of chloroquine on embryos [4]: led to pericardial edema and increased ROS levels

Compound: 2-[2-(1H-indol-3-yl)ethylamino]ethanethiol [AG1]
effect of mutations on AC50 [5]: no effect on AC50 | Enzyme activity (%) [6]: 156%^c | Enzyme activity (%) [3]: 127%

Source: patent US20200223826A1, “Glucose-6-Phosphate Dehydrogenase (G6PD)-Modulating Agents And Methods Of Treating G6PD Deficiency” (The Board of Trustees of the Leland Stanford Junior …, priority 2017, published 2020)
